Values after ≈ are worked out from the molar mass of the structure shown.
Columns and labels:
[1] = Metabolic stability of human liver microsomes assessed as parent compound remaining at 0.1 uM after 60 mins in presence of NADPH by LC/MS/MS analysis; format: ADME, microsome; details: read-out: Stability
[2] = Metabolic stability of rat liver microsomes assessed as parent compound remaining at 0.1 uM after 60 mins in presence of NADPH by LC/MS/MS analysis; format: ADME, microsome; details: read-out: Stability
[3] = target: T1, CYP1A2 (Homo sapiens, UniProt P05177); experiment: Inhibition of CYP1A2 in human liver microsomes at 10 uM after 20 mins in presence of NADPH by LC/MS/MS analysis relative to control; format: ADME; details: liver microsomes
T1 sequence (P05177 whole entry): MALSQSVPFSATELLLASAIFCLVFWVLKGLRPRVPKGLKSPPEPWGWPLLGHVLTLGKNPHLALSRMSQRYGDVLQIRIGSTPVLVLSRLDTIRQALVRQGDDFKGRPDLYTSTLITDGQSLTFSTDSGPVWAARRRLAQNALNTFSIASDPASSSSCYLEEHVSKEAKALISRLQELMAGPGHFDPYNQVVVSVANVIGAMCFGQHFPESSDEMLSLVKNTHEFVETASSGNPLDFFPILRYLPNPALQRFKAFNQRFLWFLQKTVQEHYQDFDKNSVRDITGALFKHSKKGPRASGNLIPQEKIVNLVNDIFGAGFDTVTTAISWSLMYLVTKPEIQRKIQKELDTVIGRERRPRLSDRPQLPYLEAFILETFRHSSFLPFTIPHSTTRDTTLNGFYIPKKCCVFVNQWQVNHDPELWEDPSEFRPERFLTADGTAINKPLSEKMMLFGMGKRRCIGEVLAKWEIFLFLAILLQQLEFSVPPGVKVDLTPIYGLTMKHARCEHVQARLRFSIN

[4] = target: CYP2D6 (Homo sapiens, UniProt P10635); experiment: Inhibition of CYP2D6 in human liver microsomes at 10 uM after 20 mins in presence of NADPH by LC/MS/MS analysis relative to control; format: ADME; details: liver microsomes
Sequence of CYP2D6 (P10635 whole entry): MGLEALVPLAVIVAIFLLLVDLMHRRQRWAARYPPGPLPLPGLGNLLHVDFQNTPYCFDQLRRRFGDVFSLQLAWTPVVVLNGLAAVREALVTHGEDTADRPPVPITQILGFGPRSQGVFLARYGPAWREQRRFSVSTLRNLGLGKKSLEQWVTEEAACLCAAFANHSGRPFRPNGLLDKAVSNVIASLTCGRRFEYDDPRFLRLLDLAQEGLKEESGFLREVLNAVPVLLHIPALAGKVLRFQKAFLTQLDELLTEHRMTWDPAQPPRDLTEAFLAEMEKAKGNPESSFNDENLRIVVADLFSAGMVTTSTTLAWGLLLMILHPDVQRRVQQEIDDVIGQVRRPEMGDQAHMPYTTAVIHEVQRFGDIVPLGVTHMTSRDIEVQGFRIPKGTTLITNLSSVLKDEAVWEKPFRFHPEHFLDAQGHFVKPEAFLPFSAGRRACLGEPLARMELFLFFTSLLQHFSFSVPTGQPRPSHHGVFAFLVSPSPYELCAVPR

[5] = Clearance in C57/BL6 mouse at 3 mg/kg, iv; format: ADME, organism-based; details: in vivo
[6] = Half life in C57/BL6 mouse at 3 mg/kg, iv; format: ADME, organism-based; details: in vivo
[7] = Tmax in C57/BL6 mouse at 30 mg/kg, po; format: ADME, organism-based; details: in vivo
[8] = Protein binding in human plasma at 10 uM by LC/MS/MS based equilibrium dialysis analysis; format: ADME, cell-free; details: read-out: PPB
[9] = Protein binding in mouse plasma at 10 uM by LC/MS/MS based equilibrium dialysis analysis; format: ADME, cell-free; details: read-out: PPB (converted)
[10] = target: Leukotriene B4 receptor 1 (Homo sapiens) (UniProt Q15722); experiment: Displacement of [3H]LTB4 to recombinant human LTB4 receptor at 10 uM after 60 mins by scintillation counting analysis relative to control
Sequence of Leukotriene B4 receptor 1 (Homo sapiens) (Q15722 whole entry): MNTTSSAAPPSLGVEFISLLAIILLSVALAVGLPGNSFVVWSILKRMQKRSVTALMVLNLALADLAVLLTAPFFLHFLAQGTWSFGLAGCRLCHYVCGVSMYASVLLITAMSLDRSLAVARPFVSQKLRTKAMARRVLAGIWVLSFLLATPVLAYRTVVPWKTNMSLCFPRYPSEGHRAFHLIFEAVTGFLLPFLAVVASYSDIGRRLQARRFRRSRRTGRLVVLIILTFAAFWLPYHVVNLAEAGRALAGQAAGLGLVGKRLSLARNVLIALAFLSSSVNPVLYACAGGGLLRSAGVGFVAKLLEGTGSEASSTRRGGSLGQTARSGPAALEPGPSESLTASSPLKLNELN

[11] = Aqueous solubility of compound in fasted state stimulated intestinal fluid at pH 6.2; format: physicochemical; details: fasted state simulated intestinal fluid
[12] = system: Mus musculus; experiment: (§1) Anti-inflammatory activity in po dosed C57BL/6 mouse model of cigarette smoke induced chronic obstructive pulmonary disease assessed as reduction in cellular infiltration in bronchoalveolar lavage administered once daily for 7 days 1 hr prior to first smoke exposure and measured on day 8 after last smoke exposure post single drug treatment by hemocytometry; format: functional, organism-based
[13] = system: Mus musculus; experiment: as §1, with “in” for “in po dosed”, “total leukocyte count” for “reduction in cellular infiltration”, “lavage at 10 mg/kg, po” for “lavage”; format: functional
[14] = system: Mus musculus; experiment: as §1, with “in” for “in po dosed”, “total leukocyte count” for “reduction in cellular infiltration”, “lavage at 30 mg/kg, po” for “lavage”; format: functional
[15] = system: Mus musculus; experiment: as §1, with “in” for “in po dosed”, “total leukocyte count” for “reduction in cellular infiltration”, “lavage at 100 mg/kg, po” for “lavage”; format: functional
[16] = system: Mus musculus; experiment: as §1, with “in” for “in po dosed”, “macrophages count” for “reduction in cellular infiltration”, “lavage at 3 mg/kg, po” for “lavage”, “Leishman's staining based assay” for “hemocytometry”; format: functional
[17] = system: Mus musculus; experiment: as §1, with “in” for “in po dosed”, “macrophages count” for “reduction in cellular infiltration”, “lavage at 100 mg/kg, po” for “lavage”, “Leishman's staining based assay” for “hemocytometry”; format: functional
[18] = target: All-trans-retinol dehydrogenase [NAD(+)] ADH1B (Homo sapiens, UniProt P00325); experiment: Inhibition of ADH1B (unknown origin) assessed as reduction in NADH production by spectrophotometric analysis
Sequence of All-trans-retinol dehydrogenase [NAD(+)] ADH1B (P00325 whole entry): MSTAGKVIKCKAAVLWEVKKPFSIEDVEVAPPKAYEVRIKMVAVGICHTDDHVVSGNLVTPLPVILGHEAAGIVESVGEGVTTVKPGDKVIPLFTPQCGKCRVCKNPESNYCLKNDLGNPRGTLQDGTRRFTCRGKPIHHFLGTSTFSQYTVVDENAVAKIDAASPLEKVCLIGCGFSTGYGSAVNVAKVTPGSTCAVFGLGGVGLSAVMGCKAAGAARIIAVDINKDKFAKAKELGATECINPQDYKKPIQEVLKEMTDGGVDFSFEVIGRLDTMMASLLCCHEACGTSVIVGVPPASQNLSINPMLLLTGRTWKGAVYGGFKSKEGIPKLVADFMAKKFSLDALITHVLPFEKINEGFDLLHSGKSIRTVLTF

## Clc1cc(-c2nnn[nH]2)ccc1-c1ccc(-n2ccnc2)cc1
[1]
  remaining at 1 h, 0.1 µM: 100%
[2]
  remaining at 1 h, 0.1 µM: 83%
[3]
  inhibition at 20 min, 10 µM: 32%
[4]
  inhibition at 20 min, 10 µM: 52%
[5]
  clearance: 1.4 mL/min/kg
[6]
  half-life: 3.4 h
[7]
  Tmax: 2 h
[8]
  fraction unbound at 10 µM: < 0.005
[9]
  fraction unbound at 10 µM: 0.015
[10]
  inhibition: 64%
[11]
  solubility: 3.5 µg/mL (≈ 10.8 µM)
[12]
  Activity: Dose-dependent effect
[13]
  Activity: 41%
[14]
  Activity: 49%
[15]
  Activity: 53%
[16]
  Activity: 45%
[17]
  Activity: 61%
[18]
  IC50: 54 µM

From ChEMBL document CHEMBL4257571, “Discovery of 5-(2-chloro-4'-(1H-imidazol-1-yl)-[1,1'-biphenyl]-4-yl)-1H-tetrazole as potent and orally efficacious S-nitrosoglutathione reductase (GSNOR) inhibitors for the potential treatment of COPD” (Bioorg Med Chem Lett, 2018)
